34 molecules from patent publication US20190135834A1, “5-SUBSTITUTED AZABENZIMIDAZOLE DERIVATIVE HAVING ???? ACTIVATION ACTION” (Shionogi & Co., Ltd., priority 2016, published 2019) can be followed below.

In the test the target is T1, Human AMPK α2ß2γ1 (Homo sapiens, UniProt O43741+P54646).
T1 construct: The full length cDNAs of human AMPK ß2 (NM_005399.3) and human AMPK α2 (NM_006252.3); The full length cDNAs of human AMPK ß2 (NM_005399.3); 6xHis (N); made in house; host or cells: Escherichia coli BL21 CodonPlus (DE3)-RIL
T1 sequence (P54646 whole entry): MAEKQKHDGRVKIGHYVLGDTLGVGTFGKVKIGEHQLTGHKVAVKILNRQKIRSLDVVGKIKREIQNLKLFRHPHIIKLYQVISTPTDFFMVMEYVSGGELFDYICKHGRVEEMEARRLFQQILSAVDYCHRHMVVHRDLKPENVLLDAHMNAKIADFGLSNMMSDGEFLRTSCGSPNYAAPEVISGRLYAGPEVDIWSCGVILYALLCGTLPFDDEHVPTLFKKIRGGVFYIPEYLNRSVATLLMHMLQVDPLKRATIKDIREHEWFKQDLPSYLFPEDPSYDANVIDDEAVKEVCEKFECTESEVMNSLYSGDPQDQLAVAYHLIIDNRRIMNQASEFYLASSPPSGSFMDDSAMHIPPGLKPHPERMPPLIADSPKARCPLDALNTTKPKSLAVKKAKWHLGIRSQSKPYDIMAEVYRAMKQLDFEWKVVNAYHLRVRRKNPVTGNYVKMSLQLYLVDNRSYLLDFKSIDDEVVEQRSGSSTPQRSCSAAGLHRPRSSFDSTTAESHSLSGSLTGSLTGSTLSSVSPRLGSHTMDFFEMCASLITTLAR
T1 sequence (O43741 whole entry): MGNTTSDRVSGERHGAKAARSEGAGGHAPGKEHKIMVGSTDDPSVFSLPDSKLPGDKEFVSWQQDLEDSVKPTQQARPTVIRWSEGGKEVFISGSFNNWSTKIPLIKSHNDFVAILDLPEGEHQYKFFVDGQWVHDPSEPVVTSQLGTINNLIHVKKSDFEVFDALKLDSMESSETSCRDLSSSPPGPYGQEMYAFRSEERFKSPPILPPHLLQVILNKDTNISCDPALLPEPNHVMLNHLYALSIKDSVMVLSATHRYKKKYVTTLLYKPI
T1 sequence (P54619 whole entry partner): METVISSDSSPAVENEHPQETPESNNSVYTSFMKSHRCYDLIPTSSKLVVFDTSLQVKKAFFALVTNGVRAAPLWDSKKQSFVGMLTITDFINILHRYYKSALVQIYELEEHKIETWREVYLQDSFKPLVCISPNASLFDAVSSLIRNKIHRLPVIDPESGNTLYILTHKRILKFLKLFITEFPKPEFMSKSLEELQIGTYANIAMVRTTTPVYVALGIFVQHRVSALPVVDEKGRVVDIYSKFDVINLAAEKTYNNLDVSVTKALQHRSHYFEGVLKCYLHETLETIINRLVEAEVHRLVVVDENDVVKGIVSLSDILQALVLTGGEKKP
The test is described as follows: Test Example 2: evaluation of an activator for AMP-activated protein kinase (AMPK), LabChip mobility shift assay with CaMKK2-phosphorylated enzyme. The format is biochemical. The settings on record: for EC150 (compound concentration showing 150% relative to the control (100%)): FL-Peptide 7 substrate, 25° C., 2 hours; for Emax: relative to control (100%), read-out: Emax (maximum rate of increase in activity within the measurement range). The method in brief:
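E. coli-expressed His-tagged human AMPK α2β2γ1 preactivated with GST-CaMKK2 (0.2 mM ATP, 25° C, 1–1.5 h), preincubated 10 min with compound (1% DMSO), then reacted 2 h at 25° C with 3 μM FL-Peptide 7 and 0.4 mM ATP in substrate solution, pH 7.0. Mobility-shift conversion rate gives % activity increase over no-compound control.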

For the molecule `O[C@@H]1CO[C@H]2[C@@H]1OC[C@H]2Oc1nc2nc(N[C@H]3CCc4cc(/C=C/COC5CCCCO5)cc(F)c43)c(Cl)cc2[nH]1` (some centres unmarked) [Compound I-2-39], the “EC150 (compound concentration showing 150% relative to the control (100%))” value was determined as 11 nM and the Emax (usually the maximal effect, on the per cent scale that the assay sets) was found to be 583%.

On to `O[C@@H]1CO[C@H]2[C@@H]1OC[C@H]2Oc1nc2nc(NC3CCc4cc(OCCOC5CC5)cc(F)c43)c(Cl)cc2[nH]1` (some centres unmarked) [Compound I-2-40], for which the “EC150 (compound concentration showing 150% relative to the control (100%))” value is 4.1 nM and the Emax came out at 604%.

As for `O[C@@H]1CO[C@H]2[C@@H]1OC[C@H]2Oc1nc2nc(NC3CCc4cc(OCCOC5CCC5)cc(F)c43)c(Cl)cc2[nH]1` (some centres unmarked) [Compound I-2-41], the “EC150 (compound concentration showing 150% relative to the control (100%))” value is 10 nM and the Emax is 604%.

`O[C@@H]1CO[C@H]2[C@@H]1OC[C@H]2Oc1nc2nc(NC3CCc4cc(OCCOC5CCCC5)cc(F)c43)c(Cl)cc2[nH]1` (some centres unmarked) [Compound I-2-42]: the “EC150 (compound concentration showing 150% relative to the control (100%))” value amounted to 9.1 nM and the maximal effect (Emax) came to 600%.

`CC(C)(C)OCCOc1cc(F)c2c(c1)CCC2Nc1nc2nc(O[C@@H]3CO[C@H]4[C@@H]3OC[C@H]4O)[nH]c2cc1Cl` (some centres unmarked) [Compound I-2-43]: the “EC150 (compound concentration showing 150% relative to the control (100%))” value turned out to be 31 nM and the Emax amounted to 612%.

In the case of `COCOCCOc1cc(F)c2c(c1)CCC2Nc1nc2nc(O[C@@H]3CO[C@H]4[C@@H]3OC[C@H]4O)[nH]c2cc1Cl` (some centres unmarked) [Compound I-2-44], the “EC150 (compound concentration showing 150% relative to the control (100%))” value is listed as 3.8 nM and the Emax amounted to 595%.

`Cc1cc(-c2cc(F)c3c(c2)CC[C@@H]3Nc2nc3nc(O[C@@H]4CO[C@H]5[C@@H]4OC[C@H]5O)[nH]c3cc2Cl)cnn1` [Compound I-2-45]: the “EC150 (compound concentration showing 150% relative to the control (100%))” value turned out to be 2.1 nM and the Emax was determined as 711%.

With `Cc1ncc(-c2cc(F)c3c(c2)CC[C@@H]3Nc2nc3nc(O[C@@H]4CO[C@H]5[C@@H]4OC[C@H]5O)[nH]c3cc2Cl)cn1` [Compound I-2-46], the “EC150 (compound concentration showing 150% relative to the control (100%))” value is reported as 3.3 nM and the maximal effect (Emax) worked out at 708%.

Consider `O[C@@H]1CO[C@H]2[C@@H]1OC[C@H]2Oc1nc2nc(N[C@H]3CCc4cc(C5=CCOC5)cc(F)c43)c(Cl)cc2[nH]1` [Compound I-2-47], for which the “EC150 (compound concentration showing 150% relative to the control (100%))” value came to 2.3 nM and the Emax turned out to be 724%.

Take `CC(C)n1cc(-c2cc(F)c3c(c2)CC[C@@H]3Nc2nc3nc(O[C@@H]4CO[C@H]5[C@@H]4OC[C@H]5O)[nH]c3cc2Cl)ccc1=O` [Compound I-2-48]: the “EC150 (compound concentration showing 150% relative to the control (100%))” value is 6.2 nM and the Emax was 737%.

On to `O[C@@H]1CO[C@H]2[C@@H]1OC[C@H]2Oc1nc2nc(NC3CCc4cc(O[C@@H]5CCOC5)cc(F)c43)c(Cl)cc2[nH]1` (some centres unmarked) [Compound I-2-49], for which the “EC150 (compound concentration showing 150% relative to the control (100%))” value was found to be 3.4 nM and the Emax was determined as 667%.

In the case of `O[C@@H]1CO[C@H]2[C@@H]1OC[C@H]2Oc1nc2nc(NC3CCc4cc(O[C@H]5CCOC5)cc(F)c43)c(Cl)cc2[nH]1` (some centres unmarked) [Compound I-2-50], the “EC150 (compound concentration showing 150% relative to the control (100%))” value came out at 1.9 nM and the Emax is 678%.

On to `O[C@@H]1CO[C@H]2[C@@H]1OC[C@H]2Oc1nc2nc(NC3CCc4cc(OC5COC5)cc(F)c43)c(Cl)cc2[nH]1` (some centres unmarked) [Compound I-2-51], for which the “EC150 (compound concentration showing 150% relative to the control (100%))” value is 4.7 nM and the maximal effect (Emax) is 688%.

Turning to `COCCCOc1cc(F)c2c(c1)CCC2Nc1nc2nc(O[C@@H]3CO[C@H]4[C@@H]3OC[C@H]4O)[nH]c2cc1Cl` (some centres unmarked) [Compound I-2-52], the “EC150 (compound concentration showing 150% relative to the control (100%))” value is given as 3.7 nM and the Emax came to 629%.

With `O[C@@H]1CO[C@H]2[C@@H]1OC[C@H]2Oc1nc2nc(NC3CCc4cc(OCC5COC5)cc(F)c43)c(Cl)cc2[nH]1` (some centres unmarked) [Compound I-2-53], the “EC150 (compound concentration showing 150% relative to the control (100%))” value stood at 4 nM and the Emax was 637%.

As to `CC1(COc2cc(F)c3c(c2)CCC3Nc2nc3nc(O[C@@H]4CO[C@H]5[C@@H]4OC[C@H]5O)[nH]c3cc2Cl)COC1` (some centres unmarked) [Compound I-2-54], the “EC150 (compound concentration showing 150% relative to the control (100%))” value turned out to be 1.5 nM and the Emax was 643%.

`CS(=O)(=O)CCCOc1cc(F)c2c(c1)CCC2Nc1nc2nc(O[C@@H]3CO[C@H]4[C@@H]3OC[C@H]4O)[nH]c2cc1Cl` (some centres unmarked) [Compound I-2-55]: the “EC150 (compound concentration showing 150% relative to the control (100%))” value is given as 3.6 nM and the Emax came out at 637%.

Consider `COc1ncc(-c2cc(F)c3c(c2)CC[C@@H]3Nc2nc3nc(O[C@@H]4CO[C@H]5[C@@H]4OC[C@H]5O)[nH]c3cc2Cl)cn1` [Compound I-2-56], for which the “EC150 (compound concentration showing 150% relative to the control (100%))” value was found to be 0.81 nM and the maximal response (Emax) stood at 681%.

`O[C@@H]1CO[C@H]2[C@@H]1OC[C@H]2Oc1nc2nc(N[C@H]3CCc4cc(-c5cnc(C6CC6)nc5)cc(F)c43)c(Cl)cc2[nH]1` [Compound I-2-57]: the “EC150 (compound concentration showing 150% relative to the control (100%))” value was determined as 11 nM and the Emax came out at 636%.

As to `O[C@@H]1CO[C@H]2[C@@H]1OC[C@H]2Oc1nc2nc(NC3CCc4cc(OCCOCC(F)F)cc(F)c43)c(Cl)cc2[nH]1` (some centres unmarked) [Compound I-2-59], the “EC150 (compound concentration showing 150% relative to the control (100%))” value amounted to 4.5 nM and the Emax worked out at 634%.

Take `O[C@@H]1CO[C@H]2[C@@H]1OC[C@H]2Oc1nc2nc(NC3CCc4cc(OC5CC6(COC6)C5)cc(F)c43)c(Cl)cc2[nH]1` (some centres unmarked) [Compound I-2-60]: the “EC150 (compound concentration showing 150% relative to the control (100%))” value was found to be 6.7 nM and the Emax stood at 634%.

As to `O[C@@H]1CO[C@H]2[C@@H]1OC[C@H]2Oc1nc2nc(N[C@H]3CCc4cc(-c5cncnc5)cc(F)c43)c(Cl)cc2[nH]1` [Compound I-2-61], the “EC150 (compound concentration showing 150% relative to the control (100%))” value is 3.1 nM and the Emax stood at 649%.

With `CN(C)c1ncc(-c2cc(F)c3c(c2)CC[C@@H]3Nc2nc3nc(O[C@@H]4CO[C@H]5[C@@H]4OC[C@H]5O)[nH]c3cc2Cl)cn1` [Compound I-2-62], the “EC150 (compound concentration showing 150% relative to the control (100%))” value was 9.4 nM and the maximal response (Emax) amounted to 638%.

On to `O=c1[nH]cc(-c2cc(F)c3c(c2)CC[C@@H]3Nc2nc3nc(O[C@@H]4CO[C@H]5[C@@H]4OC[C@H]5O)[nH]c3cc2Cl)cc1F` [Compound I-2-63], for which the “EC150 (compound concentration showing 150% relative to the control (100%))” value was determined as 3.9 nM and the Emax was 653%.

`O[C@@H]1CO[C@H]2[C@@H]1OC[C@H]2Oc1nc2nc(N[C@H]3CCc4cc(-c5cnc(C(F)(F)F)nc5)cc(F)c43)c(Cl)cc2[nH]1` [Compound I-2-64]: the “EC150 (compound concentration showing 150% relative to the control (100%))” value is 9.3 nM and the Emax amounted to 676%.

`Cc1ccc(-c2cc(F)c3c(c2)CC[C@@H]3Nc2nc3nc(O[C@@H]4CO[C@H]5[C@@H]4OC[C@H]5O)[nH]c3cc2Cl)cn1` [Compound I-2-66]: the “EC150 (compound concentration showing 150% relative to the control (100%))” value is recorded as 8.6 nM and the maximal response (Emax) is 711%.

As to `O[C@@H]1CO[C@H]2[C@@H]1OC[C@H]2Oc1nc2nc(N[C@H]3CCc4cc(-c5ccc(C(F)(F)F)nc5)cc(F)c43)c(Cl)cc2[nH]1` [Compound I-2-67], the “EC150 (compound concentration showing 150% relative to the control (100%))” value is 29 nM and the Emax came to 683%.

In the case of `Cn1cc(-c2cc(F)c3c(c2)CC[C@@H]3Nc2nc3nc(O[C@@H]4CO[C@H]5[C@@H]4OC[C@H]5O)[nH]c3cc2Cl)cc(F)c1=O` [Compound I-2-68], the “EC150 (compound concentration showing 150% relative to the control (100%))” value is recorded as 1.8 nM and the Emax came to 600%.

Regarding `CCc1ncc(-c2cc(F)c3c(c2)CC[C@@H]3Nc2nc3nc(O[C@@H]4CO[C@H]5[C@@H]4OC[C@H]5O)[nH]c3cc2Cl)cn1` [Compound I-2-69], the “EC150 (compound concentration showing 150% relative to the control (100%))” value was 3 nM and the Emax came out at 598%.

As for `Cn1ccc(-c2cc(F)c3c(c2)CC[C@@H]3Nc2nc3nc(O[C@@H]4CO[C@H]5[C@@H]4OC[C@H]5O)[nH]c3cc2Cl)n1` [Compound I-2-70], the “EC150 (compound concentration showing 150% relative to the control (100%))” value came to 5.2 nM and the Emax stood at 583%.

With `CCOc1ncc(-c2cc(F)c3c(c2)CC[C@@H]3Nc2nc3nc(O[C@@H]4CO[C@H]5[C@@H]4OC[C@H]5O)[nH]c3cc2Cl)cn1` [Compound I-2-71], the “EC150 (compound concentration showing 150% relative to the control (100%))” value worked out at 8.6 nM and the Emax was 590%.

In the case of `O[C@@H]1CO[C@H]2[C@@H]1OC[C@H]2Oc1nc2nc(NC3CCc4cc(OCF)cc(F)c43)c(Cl)cc2[nH]1` (some centres unmarked) [Compound I-2-72], the “EC150 (compound concentration showing 150% relative to the control (100%))” value came out at 1.8 nM and the maximum response (Emax) was determined as 592%.

As to `CC(C)(O)Cn1cc(-c2cc(F)c3c(c2)CC[C@@H]3Nc2nc3nc(O[C@@H]4CO[C@H]5[C@@H]4OC[C@H]5O)[nH]c3cc2Cl)cn1` [Compound I-2-73], the “EC150 (compound concentration showing 150% relative to the control (100%))” value was 1.4 nM and the Emax amounted to 608%.

Regarding `O[C@@H]1CO[C@H]2[C@@H]1OC[C@H]2Oc1nc2nc(N[C@H]3CCc4cc(-c5cnn(C6COC6)c5)cc(F)c43)c(Cl)cc2[nH]1` [Compound I-2-74], the “EC150 (compound concentration showing 150% relative to the control (100%))” value is given as 1.5 nM and the Emax is 609%.
